Among the data in patent publication US10077243B2, “Compounds for treating disorders mediated by metabotropic glutamate receptor 5, and methods of use thereof” (Sunovion Pharmaceuticals Inc., priority 2009, dated 2018) are EC50 values, retold here.

SMILES strings stand for the structures.

For the test, the target named is T1, human mGluR5 (Homo sapiens, UniProt P41594).
T1 construct: expressed in transfected cells; host or cells: HEK293 cells stably expressing rat GLAST (EAAT1), stably transfected with pcDNAzeo3.1 carrying synthetic human mGluR5 DNA; zeocin-selected single clones
T1 sequence (P41594 21-1212): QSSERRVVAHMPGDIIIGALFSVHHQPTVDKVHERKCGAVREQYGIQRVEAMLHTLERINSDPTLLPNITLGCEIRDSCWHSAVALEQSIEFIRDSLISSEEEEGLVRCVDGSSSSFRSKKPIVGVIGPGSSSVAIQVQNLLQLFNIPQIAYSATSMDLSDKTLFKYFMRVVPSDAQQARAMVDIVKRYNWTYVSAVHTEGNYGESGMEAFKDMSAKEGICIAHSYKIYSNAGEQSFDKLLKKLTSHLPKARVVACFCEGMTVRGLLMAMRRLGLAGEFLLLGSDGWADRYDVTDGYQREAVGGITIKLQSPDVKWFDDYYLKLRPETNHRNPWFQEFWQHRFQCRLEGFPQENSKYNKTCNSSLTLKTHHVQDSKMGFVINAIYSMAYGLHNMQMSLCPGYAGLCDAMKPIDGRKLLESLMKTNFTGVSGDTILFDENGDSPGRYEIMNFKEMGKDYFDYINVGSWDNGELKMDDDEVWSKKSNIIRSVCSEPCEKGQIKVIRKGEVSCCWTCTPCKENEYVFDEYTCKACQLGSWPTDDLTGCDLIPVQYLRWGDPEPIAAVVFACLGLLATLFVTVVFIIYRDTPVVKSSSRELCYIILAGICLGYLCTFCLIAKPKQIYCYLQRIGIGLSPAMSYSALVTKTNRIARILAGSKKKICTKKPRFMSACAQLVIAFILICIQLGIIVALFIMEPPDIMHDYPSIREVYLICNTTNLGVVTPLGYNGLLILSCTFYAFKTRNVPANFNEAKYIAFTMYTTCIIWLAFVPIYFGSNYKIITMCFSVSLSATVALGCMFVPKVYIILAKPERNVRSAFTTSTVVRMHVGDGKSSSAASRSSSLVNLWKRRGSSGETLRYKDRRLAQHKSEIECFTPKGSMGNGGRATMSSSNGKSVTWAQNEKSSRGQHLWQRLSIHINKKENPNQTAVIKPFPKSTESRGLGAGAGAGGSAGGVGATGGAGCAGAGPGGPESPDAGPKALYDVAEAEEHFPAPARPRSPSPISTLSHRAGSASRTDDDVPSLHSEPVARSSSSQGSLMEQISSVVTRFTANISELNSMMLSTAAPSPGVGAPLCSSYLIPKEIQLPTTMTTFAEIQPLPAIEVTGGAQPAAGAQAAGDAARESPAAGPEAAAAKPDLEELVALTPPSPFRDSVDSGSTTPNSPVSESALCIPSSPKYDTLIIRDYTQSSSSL
As to the kind of experiment: In vitro cell-based FLIPR calcium assay for positive modulation of the activation of mGluR5 by glutamate (PAM EC50). The following applies: HEK293/GLAST cells expressing recombinant human mGluR5; FLIPR calcium signal; glutamate added at its EC20; read-out: mGluR5 PAM EC50. In outline:
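PAM activity was measured as FLIPR calcium fluorescence in the presence of an EC20 glutamate concentration determined daily from a glutamate concentration-response curve. Cells were HEK293/GLAST clones expressing mGluR5, dye-loaded at 25 °C for 45–60 min in HEPES-buffered HBSS; vehicle control was 0.3% DMSO.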
By EC50 is commonly meant the midpoint of the concentration-response curve. Turning to `O=c1c2ccc(C#Cc3ccsc3)cc2nc2n1CCC1(CC2)OCCO1` [Example 7.59], the EC50 was 10 to 30 nM.
Then `O=c1c2ccc(C#Cc3cccc(F)c3)cc2nc2n1CCC1(CCCO1)CC2` (stereo not shown) [Example 6.26, 3-((3-fluorophenyl)ethynyl)-4′,5′,9,10-tetrahydro-3′H,6H-spiro[azepino[2,1-b]quinazoline-8,2′-furan]-12(7H)-one], with 10 to 30 nM; and `N#Cc1cccc(C#Cc2ccc3c(=O)n4c(nc3c2)CCCCC4)n1` [Example 6.45], with 10 to 30 nM; and `CC1CN(C)Cc2nc3cc(C#Cc4ccccn4)ccc3c(=O)n21` (stereo not shown) [Example 5.15, 2,4-dimethyl-9-(pyridin-2-ylethynyl)-3,4-dihydro-1H-pyrazino[2,1-b]quinazolin-6(2H)-one], with 30 to 100 nM.
As for `O=c1c2ncc(C#Cc3ccccn3)cc2nc2n1CCCCC2` [Example 11.8, 3-(pyridin-2-ylethynyl)-7,8,9,10-tetrahydropyrido[3′,2′:4,5]pyrimido[1,2-a]azepin-12(6H)-one], the EC50 fell in the range of 100 to 300 nM.
As to `O=c1c2c(nc3cc(C#Cc4ccccc4)ccn13)CCCCCC2` [Example 17.1, 3-(phenylethynyl)-8,9,10,11-tetrahydro-6H-cycloocta[d]pyrido[1,2-a]pyrimidin-12(7H)-one], the EC50 is < 10 nM.
Take `COCCc1cnc2cc(C#Cc3cccc(F)c3)ccn2c1=O` [Example 13.10, 8-((3-fluorophenyl)ethynyl)-3-(2-methoxyethyl)-4H-pyrido[1,2-a]pyrimidin-4-one]: the 50% effective concentration (EC50) was in the range of 10 to 30 nM.
`O=c1c2c(nc3cc(C#Cc4ccccn4)ccn13)CCCCC2` [Example 16.3, 3-(pyridin-2-ylethynyl)-7,8,9,10-tetrahydrocyclohepta[d]pyrido[1,2-a]pyrimidin-11(6H)-one]: the EC50 is < 10 nM.
In the case of `N#Cc1cccc(C#Cc2ccc3c(=O)n4c(nc3c2)CCC2(CC4)OCCO2)c1` [Example 7.38], the EC50 lay in the range of 30 to 100 nM.
In the case of `COC1CCc2nc3cc(C#Cc4cccc(F)c4)ccc3c(=O)n2C1` (stereo not shown) [Example 4.25, 3-((3-fluorophenyl)ethynyl)-8-methoxy-8,9-dihydro-6H-pyrido[2,1-b]quinazolin-11(7H)-one], the EC50 is < 10 nM.
`COC1CCc2nc3cc(C#Cc4cccc(F)c4)ccc3c(=O)n2CC1` (stereo not shown) [Example 6.18, 3-((3-fluorophenyl)ethynyl)-8-methoxy-7,8,9,10-tetrahydroazepino[2,1-b]quinazolin-12(6H)-one]: the 50% effective concentration (EC50) is < 10 nM.
Take `O=c1c2ccc(C#Cc3ccccn3)cc2nc2n1C1CCC2CC1` [Example 4.48, 3-(pyridin-2-ylethynyl)-8,9-dihydro-6H-6,9-ethanopyrido[2,1-b]quinazolin-11(7H)-one]: the EC50 is < 10 nM.
`CC1CCCc2nc3cc(C#Cc4ccccn4)ccc3c(=O)n2C1` (stereo not shown) [Example 6.42, 9-methyl-3-(pyridin-2-ylethynyl)-7,8,9,10-tetrahydroazepino[2,1-b]quinazolin-12(6H)-one]: the EC50 was < 10 nM.
Regarding `O=c1c2c(nc3cc(C#Cc4cccnc4)ccn13)CCCCCC2` [Example 17.3, 3-(pyridin-3-ylethynyl)-8,9,10,11-tetrahydro-6H-cycloocta[d]pyrido[1,2-a]pyrimidin-12(7H)-one], the EC50 was < 10 nM.
On to `CC(C#N)N1CCc2nc3cc(C#Cc4ccccn4)ccc3c(=O)n2CC1` (stereo not shown) [Example 8.24, 2-(11-oxo-8-(pyridin-2-ylethynyl)-1,2,4,5-tetrahydro-[1,4]diazepino[7,1-b]quinazolin-3(11H)-yl)propanenitrile], for which the EC50 was 300 to 1000 nM.
For the compound `Cc1cc(C#Cc2ccc3c(=O)n4c(nc3c2)CCC2(CC4)OCCO2)ccn1` [Example 7.47], the EC50 fell in the range of 10 to 30 nM.
Take `O=c1c2c(nc3cc(C#Cc4ccncc4)ccn13)CCCCC2` [Example 16.5, 3-(pyridin-4-ylethynyl)-7,8,9,10-tetrahydrocyclohepta[d]pyrido[1,2-a]pyrimidin-11(6H)-one]: the EC50 is < 10 nM.
For the compound `O=c1c2ccc(C#Cc3ccccn3)cc2nc2n1CCC1(CCCO1)CC2` (stereo not shown) [Example 6.27, 3-(pyridin-2-ylethynyl)-4′,5′,9,10-tetrahydro-3′H,6H-spiro[azepino[2,1-b]quinazoline-8,2′-furan]-12(7H)-one], the concentration giving a half-maximal response (EC50) is 30 to 100 nM.
In the case of `CC1(O)CCc2nc3cc(C#Cc4ccccn4)ccc3c(=O)n2C1` (stereo not shown) [Example 4.45, 8-hydroxy-8-methyl-3-(pyridin-2-ylethynyl)-8,9-dihydro-6H-pyrido[2,1-b]quinazolin-11(7H)-one], the EC50 lay in the range of 100 to 300 nM.
For the compound `CN1CCn2c(nc3cc(C#Cc4cccc(F)c4)ccc3c2=O)C1` [Example 5.4, 9-((3-fluorophenyl)ethynyl)-2-methyl-3,4-dihydro-1H-pyrazino[2,1-b]quinazolin-6(2H)-one], the EC50 is < 10 nM.
As to `CN1C2CCC1Cn1c(nc3cc(C#Cc4cccc(F)c4)ccc3c1=O)C2` (stereo not shown) [Example 9.1, 3-((3-fluorophenyl)ethynyl)-14-methyl-8,9,10,11-tetrahydro-6H-7,10-epiminoazocino[2,1-b]quinazolin-13(7H)-one], the EC50 is 300 to 1000 nM.
For `CC1CCc2nc3cc(C#Cc4ccccn4)ccc3c(=O)n21` (stereo not shown) [Example 3.14, 1-methyl-6-(pyridin-2-ylethynyl)-2,3-dihydropyrrolo[2,1-b]quinazolin-9(1H)-one], the EC50 lay within 100 to 300 nM.
`O=c1c2ncc(C#Cc3cccc(F)c3)cc2nc2n1CCCCC2` [Example 11.7, 3-((3-fluorophenyl)ethynyl)-7,8,9,10-tetrahydropyrido[3′,2′:4,5]pyrimido[1,2-a]azepin-12(6H)-one]: the EC50 was < 10 nM.
For the compound `O=c1c2ccc(C#Cc3ccccn3)cc2nc2n1CCC(CO)C2` (stereo not shown) [Example 4.37, 7-(hydroxymethyl)-3-(pyridin-2-ylethynyl)-8,9-dihydro-6H-pyrido[2,1-b]quinazolin-11(7H)-one], the concentration for a half-maximal effect (EC50) fell in the range of 30 to 100 nM.
With `O=c1c2ccc(C#Cc3ccc(F)cn3)cc2nc2n1CCC1(CC2)OCCO1` [Example 7.13], the EC50 was in the range of 30 to 100 nM.
Regarding `C=C1CCc2nc3cc(C#Cc4cccc(F)c4)ccc3c(=O)n2CC1` [Example 6.22, 3-((3-fluorophenyl)ethynyl)-8-methylene-7,8,9,10-tetrahydroazepino[2,1-b]quinazolin-12(6H)-one], the EC50 was < 10 nM.
As for `COCc1nc2cc(C#Cc3cccc(F)c3)ccc2c(=O)n1C` [Example 2.18, 7-((3-fluorophenyl)ethynyl)-2-(methoxymethyl)-3-methylquinazolin-4(3H)-one], the EC50 lay within 10 to 30 nM.
For `CC1(C)CCc2nc3cc(/C=C/c4ccccc4F)ccc3c(=O)n2C1` [Example 20.12, (E)-3-(2-fluorostyryl)-8,8-dimethyl-8,9-dihydro-6H-pyrido[2,1-b]quinazolin-11(7H)-one], the EC50 fell in the range of 30 to 100 nM.
Then `CC1(C)Cn2c(nc3cc(C#Cc4ccccn4)ccc3c2=O)CN1` [Example 5.17, 3,3-dimethyl-9-(pyridin-2-ylethynyl)-3,4-dihydro-1H-pyrazino[2,1-b]quinazolin-6(2H)-one], with 100 to 300 nM.
Then `O=c1c2ccc(C#Cc3ccc(F)cc3)cc2nc2n1CCCC2` [Example 4.5, 3-((4-fluorophenyl)ethynyl)-8,9-dihydro-6H-pyrido[2,1-b]quinazolin-11(7H)-one], with < 10 nM.
For the compound `CN1CCCCC12Cc1nc3cc(C#Cc4cccc(F)c4)ccc3c(=O)n1C2` (stereo not shown) [Example 3.16, 6′-((3-fluorophenyl)ethynyl)-1-methyl-1′H-spiro[piperidine-2,2′-pyrrolo[2,1-b]quinazolin]-9′(3′ H)-one], the EC50 was 100 to 300 nM.
For `Cc1csc(C#Cc2ccc3c(=O)n4c(nc3c2)CCC2(CC4)OCCO2)n1` [Example 7.61], the EC50 lay within 30 to 100 nM.
As for `Cn1c(C2CCCO2)nc2cc(C#Cc3cccc(F)c3)ccc2c1=O` (stereo not shown) [Example 2.3, 7-((3-fluorophenyl)ethynyl)-3-methyl-2-(tetrahydrofuran-2-yl)quinazolin-4(3H)-one], the EC50 fell in the range of 300 to 1000 nM.
As to `C/C=C1\CCCCCn2c1nc1cc(C(=O)Nc3ncc(C)s3)ccc1c2=O` [Example 25.1, (E)-6-ethylidene-N-(5-methylthiazol-2-yl)-13-oxo-7,8,9,10,11,13-hexahydro-6H-azocino[2,1-b]quinazoline-3-carboxamide], the EC50 was < 10 nM.
For the compound `CC1CCCc2nc3cc(C#Cc4ccccn4)ccc3c(=O)n21` (stereo not shown) [Example 4.18, 9-methyl-3-(pyridin-2-ylethynyl)-8,9-dihydro-6H-pyrido[2,1-b]quinazolin-11(7H)-one], the EC50 lay in the range of 10 to 30 nM.
As to `O=c1c2ccc(C#Cc3ccccc3C(F)(F)F)cc2nc2n1CCC1(CC2)OCCO1` [Example 7.40], the concentration giving a half-maximal response (EC50) is 100 to 300 nM.
Then `Cc1cnc(NC(=O)c2ccc3c(=O)n4c(nc3c2)CCOCC4)s1` [Example 23.2, N-(5-methylthiazol-2-yl)-11-oxo-2,4,5,11-tetrahyrdo-1H-[1,4]oxazepino[5,4-b]quinazoline-8-carboxamide], with 100 to 300 nM; and `O=c1c2c(nc3cc(C#Cc4ccccn4)ccn13)CCCCCC2` [Example 17.2, 3-(pyridin-2-ylethynyl)-8,9,10,11-tetrahydro-6H-cycloocta[d]pyrido[1,2-a]pyrimidin-12(7H)-one], with < 10 nM; and `CC1(C)CCn2c(nc3cc(C#Cc4ccccn4)ccc3c2=O)C1` [Example 4.15, 7,7-dimethyl-3-(pyridin-2-ylethynyl)-8,9-dihydro-6H-pyrido[2,1-b]quinazolin-11(7H)-one], with < 10 nM.
In the case of `CC1CCc2nc3cc(C#Cc4ccccn4)ccc3c(=O)n2CC1` (single isomer, unassigned) [6.10/6.11 faster moving enantiomer (fraction 1), 8-methyl-3-(pyridin-2-ylethynyl)-7,8,9,10-tetrahydroazepino[2,1-b]quinazolin-12(6H)-one], the EC50 is < 10 nM.
